Legend:
Vero E6 cells = experiment: Cytotoxicity, neutral red uptake assay in Vero E6 cells
[1] = as above; conditions: African green monkey
MERS-CoV M^pro = MERS-CoV M^pro (Middle East respiratory syndrome-related coronavirus, UniProt K9N7C7); format: biochemical
HCoV-OC43 M^pro = HCoV-OC43 M^pro (Human coronavirus OC43, UniProt P0C6X6); experiment: FRET-based enzymatic assay, HCoV-OC43 M^pro
EV-A71 3C^pro = EV-A71 3C^pro (Human enterovirus 71, UniProt Q66478); experiment: FRET-based enzymatic assay, EV-A71 3C^pro; format: biochemical
Chain of EV-A71 3C^pro (Q66478 1549-1731 limits assumed): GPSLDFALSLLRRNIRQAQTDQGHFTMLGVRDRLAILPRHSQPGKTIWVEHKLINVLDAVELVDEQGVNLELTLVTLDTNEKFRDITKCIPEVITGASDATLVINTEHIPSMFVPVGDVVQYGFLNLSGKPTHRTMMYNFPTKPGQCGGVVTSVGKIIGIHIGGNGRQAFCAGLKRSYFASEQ

EV-D68 3C^pro = EV-D68 3C^pro (Human enterovirus D68, UniProt Q68T42); experiment: FRET-based enzymatic assay, EV-D68 3C^pro; format: biochemical
Chain of EV-D68 3C^pro (Q68T42 1549-1731 limits assumed): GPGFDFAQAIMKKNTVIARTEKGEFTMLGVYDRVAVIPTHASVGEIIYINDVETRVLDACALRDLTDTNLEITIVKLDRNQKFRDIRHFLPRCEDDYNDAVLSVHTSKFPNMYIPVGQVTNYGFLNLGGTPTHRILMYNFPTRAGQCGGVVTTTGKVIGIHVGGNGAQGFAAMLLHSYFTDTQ

Calu-3 cells = experiment: Cytotoxicity in Calu-3 cells
EV-A71 2A^pro = EV-A71 2A^pro (Human enterovirus 71, UniProt Q66478); experiment: FRET-based enzymatic assay, EV-A71 2A^pro; format: biochemical
Chain of EV-A71 2A^pro (Q66478 863-1012 limits assumed): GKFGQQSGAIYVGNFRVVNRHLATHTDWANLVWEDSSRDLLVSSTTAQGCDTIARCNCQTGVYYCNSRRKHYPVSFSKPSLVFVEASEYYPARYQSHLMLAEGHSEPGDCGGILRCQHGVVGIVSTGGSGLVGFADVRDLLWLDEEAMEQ

EV-D68 2A^pro = EV-D68 2A^pro (Human enterovirus D68, UniProt Q68T42); experiment: FRET-based enzymatic assay, EV-D68 2A^pro; format: biochemical
Chain of EV-D68 2A^pro (Q68T42 862-1008 limits assumed): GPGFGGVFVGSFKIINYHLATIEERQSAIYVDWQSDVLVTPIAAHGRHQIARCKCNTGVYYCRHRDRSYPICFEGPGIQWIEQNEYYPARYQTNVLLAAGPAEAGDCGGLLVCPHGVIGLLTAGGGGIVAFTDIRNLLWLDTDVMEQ

SARS-CoV M^pro = SARS-CoV M^pro (Severe acute respiratory syndrome coronavirus, UniProt P0C6X7); experiment: biochemical; conditions: IC50 against SARS-CoV M^pro

Chain of MERS-CoV M^pro (K9N7C7 3248-3553 limits assumed): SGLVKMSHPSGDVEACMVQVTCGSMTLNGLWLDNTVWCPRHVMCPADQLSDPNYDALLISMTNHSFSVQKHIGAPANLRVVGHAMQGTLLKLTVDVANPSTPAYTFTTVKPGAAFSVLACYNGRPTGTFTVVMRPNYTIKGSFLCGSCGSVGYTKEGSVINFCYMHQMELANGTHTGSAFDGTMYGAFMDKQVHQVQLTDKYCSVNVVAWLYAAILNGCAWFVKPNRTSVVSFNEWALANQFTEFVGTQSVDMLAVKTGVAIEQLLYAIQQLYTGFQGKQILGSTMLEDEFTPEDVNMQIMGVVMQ
Chain of HCoV-OC43 M^pro (P0C6X6 3247-3549 limits assumed): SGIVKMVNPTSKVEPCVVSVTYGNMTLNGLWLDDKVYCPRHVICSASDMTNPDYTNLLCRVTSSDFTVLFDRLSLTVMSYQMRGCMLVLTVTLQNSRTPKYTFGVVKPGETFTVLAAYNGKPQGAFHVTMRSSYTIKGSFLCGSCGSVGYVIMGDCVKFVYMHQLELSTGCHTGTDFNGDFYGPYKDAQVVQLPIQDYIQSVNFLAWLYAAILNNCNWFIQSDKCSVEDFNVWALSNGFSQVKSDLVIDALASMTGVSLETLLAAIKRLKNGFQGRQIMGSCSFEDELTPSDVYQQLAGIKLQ

## CC(C)(C)c1ccc(N(C(=O)c2ccco2)C(C(=O)NC2CC2)c2cccnc2)cc1 (centres unmarked) [Compound 3, 2-[N-(4-tert-butylphenyl)-1-(furan-2-yl)formamido]-N-cyclopropyl-2-(pyridin-3-yl)acetamide]
Vero E6 cells
  CC50 in Vero E6 cells: moderate to high cellular cytotoxicity

## CC(C)(C)c1ccc(N(C(=O)c2ccco2)C(C(=O)NC2CCCC2)c2cccnc2)cc1 (centres unmarked) [Compound 5, 2-[N-(4-tert-butylphenyl)-1-(furan-2-yl)formamido]-N-cyclopentyl-2-(pyridin-3-yl)acetamide]
[1]
  CC50 at 5 days: > 100 µM

## CC(C)(C)c1ccc(N(C(=O)c2ccco2)C(C(=O)NC2CCCCC2)c2cccnc2)cc1 (centres unmarked) [Compound 6, 2-[N-(4-tert-butylphenyl)-1-(furan-2-yl)formamido]-N-cyclohexyl-2-(pyridin-3-yl)acetamide]
Vero E6 cells
  CC50 in Vero E6 cells: moderate to high cellular cytotoxicity

## C[C@H](NC(=O)C(c1cccnc1)N(C(=O)c1ccco1)c1ccc([Si](C)(C)C)cc1)c1ccccc1 (stereo partly drawn) [Compound 14, 2-[1-(furan-2-yl)-N-[4-(trimethylsilyl)phenyl]formamido]-N-[(1S)-1-phenylethyl]-2-(pyridinyl)acetamide]
Vero E6 cells
  CC50 in Vero E6 cells: moderate to high cellular cytotoxicity

## C[C@H](NC(=O)C(c1cccnc1)N(C(=O)c1ccco1)c1ccc(C2CCCCC2)cc1)c1ccccc1 (stereo partly drawn) [Compound 17, 2-[N-(4-cyclohexylphenyl)-1-(furan-2-yl)formamido]-N-[(1S)-1-phenylethyl]-2-(pyridin-3-yl)acetamide]
Vero E6 cells
  CC50 in Vero E6 cells: moderate to high cellular cytotoxicity

## C[C@H](NC(=O)C(c1cccnc1)N(C(=O)c1ccco1)c1ccc(-c2ccco2)cc1)c1ccccc1 (stereo partly drawn) [Compound 18, 2-[1-(furan-2-yl)-N-[4-(furan-2-yl)phenyl]formamido]-N-[(1S)-1-phenylethyl]-2-(pyridin-3-yl)acetamide]
Vero E6 cells
  CC50 in Vero E6 cells: moderate to high cellular cytotoxicity

## C[C@H](NC(=O)C(c1cccnc1)N(C(=O)c1ccco1)c1ccc(-c2cccs2)cc1)c1ccccc1 (stereo partly drawn) [Compound 19, 2-[1-(furan-2-yl)-N-[4-(thiophen-2-yl)phenyl]formamido]-N-[(1S)-1-phenylethyl]-2-(pyridin-3-yl)acetamide]
Vero E6 cells
  CC50 in Vero E6 cells: moderate to high cellular cytotoxicity

## C[C@H](NC(=O)[C@@H](c1cccnc1)N(C(=O)c1ccco1)c1ccc(-c2ccccc2)cc1)c1ccccc1 [Compound 23R, (2R)-2-(N-{[1,1’-biphenyl]-4-yl}-1-(furan-2-yl)formamido)-N-[(1S)-1-phenylethyl]-2-(pyridin-3-yl)acetamide]
MERS-CoV M^pro
  IC50 against MERS-CoV M^pro: not other viral proteases tested
HCoV-OC43 M^pro
  IC50 against HCoV-OC43 M^pro: not other viral proteases tested
EV-A71 3C^pro; FRET-based enzymatic assay
  IC50 against EV-A71 3C^pro: not other viral proteases tested
Vero E6 cells
  cytotoxicity to Vero E6 cells (not cytotoxic at up to): > 100 µM
EV-D68 3C^pro; FRET-based enzymatic assay
  IC50 against EV-D68 3C^pro: not other viral proteases tested
Calu-3 cells
  cytotoxicity in Calu-3 cells (not cytotoxic at up to): > 100 µM
EV-A71 2A^pro; FRET-based enzymatic assay
  IC50 against EV-A71 2A^pro: not other viral proteases tested
EV-D68 2A^pro; FRET-based enzymatic assay
  IC50 against EV-D68 2A^pro: not other viral proteases tested
SARS-CoV M^pro
  IC50: ≤ 0.27 µM

## C[C@H](NC(=O)C(c1cccnc1)N(C(=O)c1cnco1)c1ccc(-c2ccccc2)cc1)c1ccccc1 (stereo partly drawn) [Compound 26, 2-(N-{[1,1’-biphenyl]-4-yl}-1-(1,3-oxazol-5-yl)formamido)-N-[(1S)-1-phenylethyl]-2-(pyridin-3-yl)acetamide]
Vero E6 cells
  CC50 in Vero E6 cells: moderate to high cellular cytotoxicity

## O=C(NC1CCCCC1)C(c1cccnc1)N(C(=O)c1ccco1)c1ccc(-c2ccccc2)cc1 (centres unmarked) [Compound 34, 2-(N-{[1,1’-biphenyl]-4-yl}-1-(furan-2-yl)formamido)-N-cyclohexyl-2-(pyridin-3-yl)acetamide]
Vero E6 cells
  CC50 in Vero E6 cells: moderate to high cellular cytotoxicity

## C[C@H](NC(=O)C(c1cccnc1)N(C(=O)c1ccno1)c1ccc(C2CCCCC2)cc1)c1ccccc1 (stereo partly drawn) [Compound 36, 2-[N-(4-cyclohexylphenyl)-1-(1,2-oxazol-5-yl)formamido]-N-[(1S)-1-phenylethyl]-2-(pyridin-3-yl)acetamide]
Vero E6 cells
  CC50 in Vero E6 cells: moderate to high cellular cytotoxicity

## CC(C)C[C@H](NC(=O)OCc1ccccc1)C(=O)N[C@@H](C[C@@H]1CCNC1=O)C(O)S(=O)(=O)O (some centres unmarked) [GC376, reference compound]
EV-A71 3C^pro
  IC50: ≤ 0.16 µM
EV-D68 3C^pro
  IC50: ≤ 0.16 µM
EV-A71 2A^pro
  IC50: > 50 µM
EV-D68 2A^pro
  IC50: > 50 µM

Reference: article PMC8536799 (Journal of medicinal chemistry, 2021)
